Laboratory results: paper PMC5862576, “Mitochondrial fission as a driver of stemness in tumor cells: mDIVI1 inhibits mitochondrial function, cell migration and cancer stem cell (CSC) signalling” (Oncotarget, 2018)

Experiments:
Format in all cases: cell-based, Human
[1] = tested on: MCF7 cells; experiment: Mitochondrial superoxide (MitoSOX, flow cytometry); conditions: both concentrations; 24 hour, 2 and 5 days; vs vehicle
Experimental: For both assays, 2 × 10^5 MCF7 cells were seeded in 35 mm plates. When cells were attached, either vehicle or mDIVI1 were added to the cells for 24, 48 hours or 5 days in triplicate. Reactive oxygen species (ROS) production was measured using CM-H2DCFDA (C6827, Invitrogen). Briefly, cells were incubated for 20 minutes at 37° C with 1 µM CM-H2DCFDA diluted in PBS and then placed in complete media for 20 minutes at 37° C in the dark, to render the dye fluorescent, according to the manufacturer. Mitochondrial superoxide was measured using MitoSOX Red Mitochondrial Superoxide Indicator (M36008, ThermoFisher Scientific). Briefly, cells were incubated for 10 minutes at 37° C in the dark with 5 µM MitoSOX diluted in PBS, according to the manufacturer. ROS signal and MitoSOX signal was quantified as mean fluorescent intensity of the viable cell population in a Fortessa flow cytometer (BD Bioscience). Results were analysed using FlowJo software.

[2] = tested on: MCF7 cells; experiment: Label-free semi-quantitative proteomics; conditions: 10 µM, 48 hours vs vehicle
Experimental: HPLC gradient grade acetonitrile was obtained from Fisher Scientific. Briefly, 2 × 10^6 MCF7 cells were seeded in 15 cm plates until cells were attached. […] As control, vehicle-treated cells were processed in parallel. After 48 hours of treatment, cells were lysed in RIPA buffer (R0278, Sigma) and kept at 4° C for 20 minutes with rotation. Lysates were cleared by centrifugation for 10 minutes at 10,000 × g and supernatants were collected and kept frozen at −80° C. Lysate samples were thawed to room temperature and their concentrations equalised to 1 µg/µL (50 µL volume) with RIPA buffer, and further processed for trypsin digestion by sequential reduction of disulphide bonds with TCEP and alkylation with MMTS. Briefly, 1 µL benzonase (Novagen) was added to the 50 µL aliquot and placed on ice for 15 minutes. The sample was then taken to dryness using a SpeedVac, and resuspended in 22.5 µL trypsin reaction buffer (40 mM ammonium bicarbonate and 9% acetonitrile). One µL of 50 mM TCEP solution was added to each sample, mixed briefly and placed on a heater block at 60° C for 60 minutes. After cooling to room temperature, 0.5 µL of 200 mM MMTS solution was added to each sample and allowed to react for 15 minutes. Trypsin was added in two waves to ensure efficient digestion of the sample. Firstly, 20 µg of sequencing grade trypsin was resuspended in 1800 µL of trypsin reaction buffer; 225 µL of this solution were added to each sample for digestion, and the reactions were left at 37° C overnight with shaking (600 rpm). The following morning, a further aliquot of trypsin was added. Two ml of trypsin reaction buffer was added to […] of sequencing grade trypsin; 250 µL of this solution were added to each of the digest samples from overnight, and the reactions were left at 37° C for 4 hours with shaking (600 rpm). […] The digested solution was diluted in 7.5 mL of acetonitrile containing 0.3% formic acid. PolyhydroxyethylA SPE 12 µm, 300A, 300mg cartridges (obtained from PolyLC) were used for the HILIC procedure. Prior to use, cartridges required an overnight soak in 50 mM formic acid followed by rinsing with water the following day. […] The diluted samples were loaded onto the cartridges and washed with a further 10 mL Buffer A. Finally, peptides were eluted in 1 mL Buffer C (9 parts Buffer B plus 1 part Buffer A) and the samples dried on a Speedvac to remove organic solvent prior to LC-MS/MS analysis. Lyophilised digests were resuspended in 50 µL of 0.1% TFA to give an approximate concentration of 1 µg/µL. One µL injection volumes were used throughout resulting in an on-column peptide loading of approximately 1 µg per injection. Analysis was performed in quintuplicate for each sample. All LC-MS/MS analyses were performed on an LTQ Orbitrap XL mass spectrometer coupled to an Ultimate 3000 RSLCnano system (Thermo Scientific). One µL injection volumes were used throughout and samples loaded directly onto the analytical column, PepMap RSLC C18, 2 µm × 75 µm id × 50 cm (Thermo Scientific). The composition (v/v) of LC buffers were as follows; […] Peptides were loaded directly onto the column at a flow rate of 400 nl/min with an initial mobile phase composition of 1% B. […] The column was then allowed to re-equilibrate to 1% B for a total analysis time of 74 minutes. The mass spectrometer was instructed to perform data dependent acquisition on the top six precursor ions, which were measured in the Orbitrap FTMS detector over the mass range 370–1200 m/z, at a nominal resolution of 60,000. […] Gas-phase fractionation was performed on the five replicate injections such that MS/MS data was collected for precursor ion range 370–494 m/z Injection 1, 494–595 m/z Injection 2, 595–685 m/z Injection 3, 685–817 m/z Injection 4 and 817–1200 m/z Injection 5. Xcalibur raw data files acquired on the LTQ-Orbitrap XL were directly imported into Progenesis LCMS software (Waters Corp) for peak detection and alignment. Data were analysed using the Mascot search engine. […]

[3] = tested on: MCF7 cells; experiment: CD24/CD44 expression (FACS)
Experimental: Following mDIVI1 treatment, MCF7 cells grown either in suspension or as monolayers were analysed for their expression of CD24 and CD44. The surviving fraction after 2 days and 5 days of growth was analyzed by FACS. MCF7 cells were either trypsinised or spun down and trypsinised and incubated with CD24 (IOTest CD24-PE, Beckman Coulter) and CD44 (APC mouse anti-human CD44, 559942, BD Pharmingen) for 15 minutes on ice. Cells were then rinsed twice in PBS, spun down, and resuspended with DAPI dye (D1306, Molecular probes) at 3 μM in PBS for 10 minutes. Samples were then analyzed by FACS (Fortessa, BD Bioscence). Only the live cell population, identified using the DAPI staining, was analyzed for CD24/CD44 expression. Data were analyzed using FlowJo software.

In the case of `COc1cc(-n2c(=S)[nH]c3ccccc3c2=O)c(Cl)cc1Cl` [mDIVI1, 3-(2,4-Dichloro-5-methoxyphenyl) 2,3-dihydro 2-thioxo-4(1H) quinazolinone], the “mitochondrial superoxide production (MitoSOX)” value [1] is reported as “significantly increased”, the “BMP7 expression change (proteomics)” value [2] is reported as -47.17 and the “CELSR2 expression change (proteomics)” value [2] is reported as −1.6. For the same molecule, the “EPCAM expression change (proteomics)” value [2] was −1.58, the “EphA2 expression change (proteomics)” value [2] was -1.74 and the “F11 receptor expression change (proteomics)” value [2] was −1.70. The “LAMP1 upregulation (proteomics)” value [2] was 2.83, the “STAT3 expression change (proteomics)” value [2] was -1.83 and the “ZO-1 expression change (proteomics)” value [2] was −1.62. The “collagen type IV upregulation (proteomics)” value [2] was 1.9 fold, the “desmoplakin expression change (proteomics)” value [2] was −4.58 and the “junction plakoglobin expression change (proteomics)” value [2] was −1.65. For the same molecule, the “keratin 8 expression change (proteomics)” value [2] was −5.24, the “keratin 18 expression change (proteomics)” value [2] was −12.21 and the “Hexokinase 1 (HK1) change in expression” value ([2]; Glycolysis) was “↓Infinite”. The “CD24−/CD44+ subpopulation” value ([3]; 50 µM, in suspension) was “significantly increased”, the “abundance of CD24−/CD44+ subpopulation” value ([3]; 10 or 50 µM, cells grown as monolayers, vs vehicle) was “not reduced” and the “amount of CD24−/CD44+ cells” value ([3]; cells in suspension, dose-dependent) was “unexpectedly increased”.
